Measured values from patent US9580398B2, “Compounds, compositions, and methods for modulating ferroptosis and treating excitotoxic disorders” (The Trustees of Columbia University in the City of New York, priority 2012, dated 2017).

Columns and labels:
[1] = target: T1, system xc− (Homo sapiens, UniProt Q9UPY5); assay: [14C]cystine uptake assay (Na+-independent); type: cell-based; settings: HT-1080 cells; erastin 10 μM, glutamate 50 mM, SAS 1 mM
T1 construct: endogenous in cells; host or cells: HT-1080 (American Type Culture Collection)
T1 sequence (Q9UPY5 1-501): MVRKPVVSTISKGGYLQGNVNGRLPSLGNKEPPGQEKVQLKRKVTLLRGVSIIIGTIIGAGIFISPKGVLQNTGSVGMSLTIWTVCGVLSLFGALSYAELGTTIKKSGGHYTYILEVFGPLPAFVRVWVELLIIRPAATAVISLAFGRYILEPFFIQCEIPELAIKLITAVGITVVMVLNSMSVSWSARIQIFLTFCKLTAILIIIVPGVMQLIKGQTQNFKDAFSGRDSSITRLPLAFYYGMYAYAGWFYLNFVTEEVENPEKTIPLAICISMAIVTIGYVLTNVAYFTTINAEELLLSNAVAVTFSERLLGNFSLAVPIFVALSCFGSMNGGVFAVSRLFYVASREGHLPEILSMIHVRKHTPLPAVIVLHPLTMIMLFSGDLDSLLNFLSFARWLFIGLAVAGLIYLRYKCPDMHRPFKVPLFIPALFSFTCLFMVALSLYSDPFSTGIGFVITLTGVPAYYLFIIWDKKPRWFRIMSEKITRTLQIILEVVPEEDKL
T1 sequence (P08195 1-529 partner): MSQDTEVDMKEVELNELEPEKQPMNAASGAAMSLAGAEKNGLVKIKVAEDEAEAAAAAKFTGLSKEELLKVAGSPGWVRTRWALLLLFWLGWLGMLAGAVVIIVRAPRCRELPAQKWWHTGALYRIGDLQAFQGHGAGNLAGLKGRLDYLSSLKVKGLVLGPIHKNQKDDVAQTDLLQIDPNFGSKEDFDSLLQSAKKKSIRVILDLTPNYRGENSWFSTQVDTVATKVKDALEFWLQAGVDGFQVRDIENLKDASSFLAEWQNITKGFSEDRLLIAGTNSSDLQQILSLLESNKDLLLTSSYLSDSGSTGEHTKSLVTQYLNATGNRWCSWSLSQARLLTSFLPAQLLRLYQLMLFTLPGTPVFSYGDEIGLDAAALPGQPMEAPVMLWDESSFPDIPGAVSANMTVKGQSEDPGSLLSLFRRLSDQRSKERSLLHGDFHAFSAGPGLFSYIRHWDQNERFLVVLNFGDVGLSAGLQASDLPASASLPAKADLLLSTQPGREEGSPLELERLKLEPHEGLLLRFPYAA
Protocol: 200,000 HT-1080 cells/well were seeded overnight in 6-well dishes (Corning). […] At this point, in each well the buffer was replaced with 600 μL uptake buffer containing compound and 0.12 μCi (80-110 mCi/mmol) of L-[3,3′-^14C]-cystine (Perkin Elmer) and incubated for 3 minutes at 37° C. Cells were then washed three times with ice-cold uptake buffer and lysed in 500 μL 0.1 M NaOH. To this lysate was added 15 mL of scintillation fluid and radioactive counts per minute were obtained using a scintillation counter. All measurements were performed in triplicate for each condition.

[2] = tested on: rat organotypic hippocampal slice culture (OHSC); assay: Glutamate-induced excitotoxic cell death in organotypic hippocampal slice cultures (PI uptake); type: cell-based; settings: 5 mM L-glutamate 3 hours; 24 hours after; DG, CA1, CA3; Fer-1 2 μM, CPX 5 μM, MK-801 10 μM
Protocol: OHSCs were cultured as previously described (Morrison et al., 2002) with approval from Columbia University's Institutional Animal Care and Use Committee (IACUC). Briefly, Sprague Dawley rat pups (P8-P10) were rapidly decapitated, and the hippocampus placed in ice-cold Gey's balanced salt solution (Sigma). 400 μm thick sections were cut using a Mcllwain tissue chopper and immediately plated on Millicell cell culture inserts (Millipore, Billerica, Mass.) in Neurobasal (Invitrogen) media supplemented with B27 (1×, Invitrogen), GlutaMAX (1 mM, Invitrogen), and D-glucose (4.5 mg/mL, Sigma) at 37° C. and 5% CO2. After 2 days in vitro (DIV), the media was changed to medium containing serum comprised of 50% DMEM (Sigma), 25% heat-inactivated horse serum (Sigma), 25% Hank's balanced salt solution (Sigma), GlutaMAX (1 mM, Invitrogen), and D-glucose (4.5 mg/mL, Sigma). Medium was changed every 2-3 days.
After 10-14 DIV, OBSCs were exposed to an excitotoxic injury consisting of a 3 hour exposure to 5 mM L-glutamate in SFM (Morrison et al., 2002). Only healthy OHSCs defined as those with less than 5% cell death in all regions of the hippocampus (DG, CA3, CA1) pre-injury were used for experiments. After the 3 hour exposure, the cultures were placed in fresh serum free media (SFM) containing 75% DMEM, 25% Hank's balanced salt solution, GlutaMAX (1 mM), D-glucose (4.5 mg/mL) until cell death was quantified at 24 hours. If drugs were added, they were added at the same time as glutamate.
Quantification of cell death has been described previously (Cater et al., 2007; Morrison et al., 2002). Brightfield images of the hippocampal cultures were taken before injury for identification of regions of interest (ROI) including the dentate gyrus (DG), CA3 and CA1. Propidium iodide (PI, Invitrogen) was used as a fluorescent signal for cell death, and images were taken before the induction of injury and 24 hours following injury. […] Percentage cell death was expressed as the number of pixels in the ROI above a threshold in the PI fluorescent image divided by the total number of pixels in the ROI.

[3] = tested on: BJeLR and HT-1080 cells; assay: Measurement of ATP levels; type: cell-based, human; settings: normalized to viability
Protocol: ATP levels were evaluated using the ApoSENSOR ATP Assay Kit (Biovision Inc., Milpitas, Calif.) according to the manufacturer's instructions. 2000 HT-1080 or BJeLR cells were seeded in 96-well white bottom plates (Falcon). Cells were treated 12 hours later with compound as above for the TEM. Prior to luminescence measurement, medium was removed and cells were lysed and incubated with ATP Monitoring Enzyme. Luminescence was measured using a Victor3 platereader equipped with an infrared emission filter every 30 seconds for 10 minutes. Typically the first reading was used for data analysis. Parallel cell culture treatments were performed in 96-well clear bottom plates and cell viability was determined using Alamar Blue. These values were used to normalize ATP levels to cell viability.

[4] = tested on: Calu-1 cells; assay: Erastin-induced ferroptosis in Calu-1 cells with NOX pathway inhibitors; type: cell-based, human
Protocol: (§1) Cell viability was typically assessed in 384-well format by Alamar Blue (Invitrogen) fluorescence (ex/em 530/590) measured on a Victor3 platereader (Perkin Elmer, Waltham, Mass.). In some experiments, Trypan Blue dye exclusion counting was performed using an automated cell counter (ViCell, Beckman-Coulter Inc., Brea, Calif.). Cell viability in test conditions is reported as a percentage relative to the negative control treatment.

[5] = tested on: BJeLR cells; assay: Erastin-induced death and ROS production in BJeLR cells; type: cell-based, human; settings: erastin 10 μM, 6-AN 200 μM
Protocol: The day before the experiment, 200,000 cells/well were seeded in 6-well dishes (Corning Inc., Corning, N.Y.). The day of the experiment, cells were treated with test compounds for the indicated times, then harvested by trypsinization, resuspended in 500 μL Hanks Balanced Salt Solution (HBSS, Gibco, Invitrogen Corp., Carlsbad, Calif.) containing either H2DCFDA (25 μM), C11-BODIPY(581/591) (2 μM) or MitoSOX (5 μM) (all from Molecular Probes, Invitrogen) and incubated for 10 minutes at 37° C. in a tissue culture incubator. Cells were then resuspended in 500 μL of fresh HBSS, strained through a […] cell strainer (BD Falcon, BD Biosciences, San Jose, Calif.), and analyzed using a flow cytometer (FACSCalibur or Accuri C6, BD Biosciences), which was equipped with 488-nm laser for excitation. Data was collected from the FL1 (H2DCFDA, C11-BODIPY) or FL2 channel (MitoSOX). A minimum of 10,000 cells were analyzed per condition.
as §1

[6] = tested on: SLC7A11 mRNA in HT-1080 cells; assay: SLC7A11 mRNA levels by RT-qPCR; type: cell-based, human
Protocol: RNA was extracted using the Qiashredder and Qiagen RNeasy Mini kits (Qiagen) according to the manufacturer's protocol. 2 μg total RNA for each sample was used as input for each reverse transcription reaction, performed using the TaqMan RT kit (Applied Biosystems, Life Technologies Corp., Carlsbad, Calif.). Primer pairs were designed for target transcripts using Primer Express 2.0 (Applied Biosystems). Quantitative PCR reactions were performed using the Power SYBR Green PCR Master Mix (Applied Biosystems). Triplicate samples per condition were analyzed on an Applied Biosystems 7300 qPCR instrument using absolute quantification settings. Differences in mRNA levels compared to HPRT1 or ACTB internal reference control were computed between control and experimental conditions using the ΔΔCt method.

[7] = tested on: HT-1080 cells; assay: Erastin-induced death in HT-1080 cells with co-treated inhibitors (viability, microscopy); type: cell-based, human; settings: HT-1080 cells
Protocol: as §1
Phase contrast images were acquired using an AMG EVOS FL (Advanced Microscopy Group) microscope equipped with a 10× phase-contrast objective. Three independent fields were acquired for each experimental condition. Representative samples from one field of view are shown.

## N[C@@H](CCC(=O)O)C(=O)O [glutamate]
[1]
  Na+-independent uptake of [14C]cystine: abolished

## Cc1cc(C2CCCCC2)n(O)c(=O)c1 [CPX, ciclopirox olamine]
[2]
  glutamate-induced cell death (PI uptake): attenuated significantly and to an almost identical extent

## OO [H2O2]
[3]
  intracellular ATP: substantial depletion of intracellular ATP

## c1ccc2c(c1)[I+]c1ccccc1-2 [DPI, diphenylene iodonium]
[4]
  suppression of erastin-induced ferroptosis in Calu-1: strongly suppressed

## C[C@]12N[C@H](Cc3ccccc31)c1ccccc12 [MK-801]
[2]
  glutamate-induced cell death (PI uptake): attenuated significantly and to an almost identical extent

## CN(C)c1cccc(-c2c3c(=O)n(-c4ccccc4Cl)[nH]c3cc(=O)n2C)c1 [GKT137831]
[4]
  suppression of erastin-induced ferroptosis in Calu-1: strongly suppressed

## NC(=O)c1ccc(N)nc1 [6-AN, 6-aminonicotinamde]
[4]
  suppression of erastin-induced ferroptosis in Calu-1: strongly suppressed
[5]
  cell death and ROS production in erastin-treated BJeLR: prevented cell death as well as ROS production

## OCCS [β-ME, β-mercaptoethanol, reference compound]
[6]
  effect on erastin/SAS-induced SLC7A11 upregulation: suppressed
[7]
  inhibition of cell death induced by erastin, SAS and glutamate: strongly inhibited cell death

## COC(=O)c1ccc([C@@H]2c3[nH]c4ccccc4c3C[C@@H](C(=O)OC)N2C(=O)CCl)cc1 [RSL3]
[1]
  Na+-independent uptake of [14C]cystine: had no effect

## O=C(O)c1cc(/N=N/c2ccc(S(=O)(=O)Nc3ccccn3)cc2)ccc1O [SAS, sulfasalazine]
[1]
  Na+-independent uptake of [14C]cystine: abolished
